pIC50: −log10 of the molar value.
Molecular target: T1, human CARM1 (PRMT4) (Flag- and His-tagged) (Homo sapiens, UniProt Q86X55)
T1 construct: Flag-CARM1-His; made in house; host or cells: HEK 293F cells (BacMam baculovirus)
T1 sequence (Q86X55 1-585 isoform Q86X55-1): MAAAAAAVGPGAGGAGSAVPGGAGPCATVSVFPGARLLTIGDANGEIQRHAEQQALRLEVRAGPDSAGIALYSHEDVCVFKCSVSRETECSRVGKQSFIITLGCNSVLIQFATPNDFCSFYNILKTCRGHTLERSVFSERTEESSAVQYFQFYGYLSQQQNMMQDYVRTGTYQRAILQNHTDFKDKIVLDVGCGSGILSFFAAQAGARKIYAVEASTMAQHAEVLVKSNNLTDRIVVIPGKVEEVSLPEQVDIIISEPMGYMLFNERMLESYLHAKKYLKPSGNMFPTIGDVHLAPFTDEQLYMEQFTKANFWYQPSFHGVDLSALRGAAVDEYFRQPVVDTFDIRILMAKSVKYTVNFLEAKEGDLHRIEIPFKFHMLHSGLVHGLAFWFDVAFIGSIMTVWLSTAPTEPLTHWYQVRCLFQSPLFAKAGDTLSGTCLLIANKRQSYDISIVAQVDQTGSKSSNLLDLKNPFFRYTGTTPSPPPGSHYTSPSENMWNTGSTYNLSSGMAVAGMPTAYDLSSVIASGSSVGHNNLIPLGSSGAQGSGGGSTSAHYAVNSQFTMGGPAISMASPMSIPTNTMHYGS
Test: CARM1 Biochemical Assay (3H-SAM Flashplate, peptide substrate)
Details: single experiment or average of multiple experiments
From the text: General Materials. S-adenosylmethionine (SAM), S-adenosylhomocysteine (SAH), bicine, Tween20, dimethylsulfoxide (DMSO), bovine skin gelatin (BSG), sodium butyrate and Tris(2-carboxyethyl)phosphine hydrochloride solution (TCEP) were purchased from Sigma-Aldrich at the highest level of purity possible. ^3H-SAM was purchase from American Radiolabeled Chemicals with a specific activity of 80 Ci/mmol. 384-well streptavidin Flashplates were purchased from PerkinElmer.
Substrates. Peptide representative of human histone H3 residues 16-30 was synthesized with an N-terminal linker-affinity tag motif and a C-terminal amide cap by 21st Century Biochemicals. The peptide was purified by high-performance liquid chromatography (HPLC) to greater than 95% purity and confirmed by liquid chromatography mass spectrometry (LC-MS). The sequence was Biot-Ahx-[…]-amide and contained a monomethylated arginine at position 26 (SEQ ID NO.:14).
Molecular Biology: Human CARM1 (PRMT4) (NM_199141.1) transcript clone was amplified from an HEK 293 cDNA library, incorporating a flanking 5′ sequence encoding a FLAG tag ([…]) (SEQ ID NO.:6) fused directly to Ala 2 of CARM1 and 3′ sequence encoding a hexa His sequence ([…]) (SEQ ID NO.:15) fused directly to Ser 608. The gene sequence encoding isoform1 containing a deletion of amino acids 539-561 was amplified subsequently and subcloned into pFastBacMam (Viva Biotech).
Protein Expression. Recombinant baculovirus were generated according to Bac-to-Bac kit instructions (Life Technologies). […] Infections were carried out at 37° C. for 48 hours, harvested by centrifugation, and stored at −80° C. for purification.
Protein Purification. […] Column was washed with 500 mM NaCl in buffer A and Flag-CARM1-His was eluted with 200 ug/ml FLAG peptide in buffer A. Pooled fractions were dialyzed in 20 mM Tris, 150 mM NaCl, 5% glycerol and 1 mM DTT, pH 7.8. The purity of recovered protein was 94.
General Procedure for CARM1 Enzyme Assays on Peptide Substrates. The assays were all performed in a buffer consisting of 20 mM Bicine (pH=7.6), 1 mM TCEP, 0.005% BSG, and 0.002% Tween 20, prepared on the day of use. Compounds in 100% DMSO (1 ul) were spotted into a polypropylene 384-well V-bottom plates (Greiner) using a Platemate Plus outfitted with a 384-channel head (Thermo Scientific). DMSO (1 ul) was added to Columns 11, 12, 23, 24, rows A-H for the maximum signal control and 1 ul of SAH, a known product and inhibitor of CARM1, was added to columns 11, 12, 23, 24, rows I-P for the minimum signal control. A cocktail (40 ul) containing the CARM1 enzyme was added by Multidrop Combi (Thermo-Fisher). The compounds were allowed to incubate with CARM1 for 30 min at room temperature, then a cocktail (10 ul) containing ^3H-SAM and peptide was added to initiate the reaction (final volume=51 ul). The final concentrations of the components were as follows: CARM1 was 0.25 nM, ^3H-SAM was 30 nM, peptide was 250 nM, SAH in the minimum signal control wells was 1 mM, and the DMSO concentration was 2%. The assays were stopped by the addition of non-radiolabeled SAM (10 ul) to a final concentration of 300 uM, which dilutes the ^3H-SAM to a level where its incorporation into the peptide substrate is no longer detectable. 50 ul of the reaction in the 384-well polypropylene plate was then transferred to a 384-well Flashplate and the biotinylated peptides were allowed to bind to the streptavidin surface for at least 1 hour before being washed once with 0.1% Tween20 in a Biotek ELx405 plate washer. The plates were then read in a PerkinElmer TopCount plate reader to measure the quantity of ^3H-labeled peptide bound to the Flashplate surface, measured as disintegrations per minute (dpm) or alternatively, referred to as counts per minute (cpm).
Where dpm=disintegrations per minute, cmpd=signal in assay well, and min and max are the respective minimum and maximum signal controls. […]

pIC50: 5.91
SMILES: CNCCN(C)Cc1c[nH]nc1C#Cc1ccccc1 [Compound 3]

— patent US11512053B2, “Arginine methyltransferase inhibitors and uses thereof” (priority 2013, dated 2022)
